Target: WDR5 (Δ23, residues 24-334) (Homo sapiens, UniProt P61964)
Test: biochemical
Details: Kd (M), FPA-based binding affinity at the WDR5 WIN site; IC50 converted to Kd by modified Cheng-Prusoff equation; average of two experiments

| Structure (SMILES) | Kd [M] |
| --- | --- |
| O=C(NCc1cccc(-c2cn3c(n2)CCC3)c1)c1ccc(F)cc1 [B3] | 5e-06 |
| O=C(NCc1cccc(-c2cn3c(n2)CCC3)c1)c1ccc(Cl)cc1Cl [B4] | 3.9e-06 |
| O=C(NCc1cccc(-c2cn3c(n2)CCC3)c1)c1cc(Cl)cc(Cl)c1 [B5] | 2.28e-06 |
| O=C(/C=C/c1ccccc1)NCc1cccc(-c2cn3c(n2)CCC3)c1 [B12] | 1.19e-06 |
| O=C(CCc1ccccc1)NCc1cccc(-c2cn3c(n2)CCC3)c1 [B13] | 2.3e-06 |
| O=C(NCc1cccc(-c2cn3c(n2)CCC3)c1)c1cccc2cccnc12 [B14] | 5.19e-06 |
| O=C(NCc1cccc(-c2cn3c(n2)CCC3)c1)c1ccc(Cl)nc1 [B17] | 1.86e-06 |
| O=C(CCc1ccccc1)N(Cc1cccc(-c2cn3c(n2)CCC3)c1)CC1CC1 [B19] | 1.82e-06 |
| O=C(CC1CCCCC1)NCc1cccc(-c2cn3c(n2)CCC3)c1 [B20] | 3.63e-06 |
| O=C(NCc1cccc(-c2cn3c(n2)CCC3)c1)Nc1ccccc1 [B22] | 3.83e-06 |
| CC(=O)N1CCC(C(=O)NCc2cccc(-c3cn4c(n3)CCC4)c2)CC1 [B25, 1-Acetyl-N-(3-(6,7-dihydro-5H-pyrrolo[1,2-a]imidazol-2-yl)benzyl)piperidine-4-carboxamide] | 1.37e-06 |
| O=C(NCc1cccc(-c2cn3c(n2)CCC3)c1)c1ccc(O)nc1 [B26] | 2.68e-06 |
| O=C(NCc1cccc(-c2cn3c(n2)CCC3)c1)C1CCNCC1 [B27] | 4.19e-06 |
| O=C(CCc1cccnc1)NCc1cccc(-c2cn3c(n2)CCC3)c1 [B30] | 3.36e-06 |
| O=C(NCc1cccc(-c2cn3c(n2)CCC3)c1)Nc1cc(Cl)cc(Cl)c1 [B33] | 3.52e-06 |
| O=C(NCc1ccccc1)NCc1cccc(-c2cn3c(n2)CCC3)c1 [B34] | 2.71e-06 |
| Cc1cc(C(=O)N(Cc2cccc(-c3cn4c(n3)CCC4)c2)CC2CC2)ccc1Cl [B44] | 2.96e-05 |
| O=C(C1CCCNC1)N(Cc1cccc(-c2cn3c(n2)CCC3)c1)CC1CC1 (stereo not shown) [B48] | 2.71e-05 |

Stronger by Kd, values ahead:

| Kd [M] | Structure (SMILES) |
| --- | --- |
| 1.14e-06 | COc1ccc(C(=O)N(Cc2cccc(-c3cn4c(n3)CCC4)c2)C2CC2)cc1OC [B53] |
| 8.08e-07 | O=C(NCc1cccc(-c2cn3c(n2)CCC3)c1)c1ccc2c(c1)OCCO2 [B54] |
| 7.24e-07 | COc1cccc(C(=O)N(Cc2cc(C)cc(-c3cn4c(n3)CCC4)c2)CC2CC2)c1 [B28] |
| 7.04e-07 | Cc1ccc(C(=O)NCc2cccc(-c3cn4c(n3)CCC4)c2)cc1C [B21, N-(3-(6,7-Dihydro-5H-pyrrolo[1,2-a]imidazol-2-yl)benzyl)-3,4-dimethylbenzamide] |
| 6.3e-07 | O=C(NCc1cccc(-c2cn3c(n2)CCC3)c1)C1CCCNC1 (stereo not shown) [B43] |
| 5.61e-07 | O=C(NCc1cccc(-c2cn3c(n2)CCC3)c1)C1CC1c1ccccc1 (stereo not shown) [B39] |
| 5.26e-07 | O=C(NCc1cccc(-c2cn3c(n2)CCC3)c1)C1CCc2ccccc2C1 (stereo not shown) [B42] |
| 4.85e-07 | O=C(C1CC1c1ccccc1)N(Cc1cccc(-c2cn3c(n2)CCC3)c1)CC1CC1 (stereo not shown) [B51] |
| 4.8e-07 | O=C(Nc1cc(Cl)cc(Cl)c1)N(Cc1cccc(-c2cn3c(n2)CCC3)c1)CC1CC1 [B50] |
| 4.48e-07 | Cc1cc(C(=O)N(C)Cc2cccc(-c3cn4c(n3)CCC4)c2)ccc1Cl [B38] |
| 3.91e-07 | Cc1cc(NC(=O)NCc2cccc(-c3cn4c(n3)CCC4)c2)ccc1Cl [B45] |
| 3.35e-07 | COc1cccc(C(=O)N(Cc2cc(-c3cn4c(n3)CCC4)ccc2C)CC2CC2)c1 [B23] |
| 3.24e-07 | COc1cccc(NC(=O)N(C)Cc2cccc(-c3cn4c(n3)CCC4)c2)c1 [B31] |
| 2.95e-07 | COc1cccc(C(=O)N(Cc2cccc(-c3cn4c(n3)CCC4)c2)CC2CCCC2)c1 [B41] |
| 2.58e-07 | COc1cccc(C(=O)N(Cc2cccc(-c3cn4c(n3)CCC4)c2)CC2CCCCC2)c1 [B36] |
| 2.43e-07 | COc1cccc(C(=O)N(Cc2ccccc2)Cc2cccc(-c3cn4c(n3)CCC4)c2)c1 [B35] |
| 2.08e-07 | O=C(Cc1cc(Cl)cc(Cl)c1)NCc1cccc(-c2cn3c(n2)CCC3)c1 [B18] |
| 2.05e-07 | COc1cccc(NC(=O)NCc2cccc(-c3cn4c(n3)CCC4)c2)c1 [B24] |
| 1.25e-07 | COc1ccc(C(=O)N(Cc2cc(Cl)cc(-c3cn4c(n3)CCC4)c2)CC2CC2)cc1OC [B46] |

From US10160763B2, “WDR5 inhibitors and modulators” (Vanderbilt University, priority 2016, dated 2018)
